Test results taken from patent US20120142645A1, “NEUROACTIVE STEROID COMPOSITIONS AND METHODS OF USE FOR LOWERING CHOLESTEROL” (priority 2009, published 2012).

Assays:
[1] = tested on: patients with schizophrenia or schizoaffective disorder; assay: SANS negative symptoms; randomized placebo-controlled 8-week trial of adjunctive pregnenolone (100, 300, then 500 mg/day oral); type: in vivo, human; settings: for SANS Total, change: text prints it as positive mean change (improvement); for SANS Total, difference PG vs placebo: points; for SANS Affect subscale score / SANS Alogia subscale score / SANS Anhedonia/asociality subscale score / SANS Attention subscale score / SANS Avolition/apathy subscale score / SANS Total score: mean ± SD, n = 8
Description: Study Design and Subjects. Disclosed herein is a placebo-controlled, double-blind, parallel group, randomized trial of adjunctive pregnenolone for the treatment of cognitive and negative symptoms in patients with schizophrenia or schizoaffective disorder. […] Patients received a total of 6 study visits, which took place every two weeks. […] The trial was conducted at a single site, the Durham Veterans Affairs Medical Center in Durham, N.C. The protocol was approved by the local institutional review board and conducted under FDA Investigational New Drug (IND) #71,768. The ClinicalTrials.gov number for this study is NCT00560937.
Subjects were outpatients between the ages of 18 and 65 with schizophrenia or schizoaffective disorder diagnosed by DSM-IV/DSM-IV-TR criteria utilizing the Structured Clinical Interview (First et al., 1996) and medical records. All subjects were between the ages of 18-65 and provided informed consent. Duration of illness was greater than one year for all enrolled patients. To be eligible for the trial, patients had to be taking a second-generation antipsychotic (aripiprazole, olanzapine, quetiapine, or risperidone) for at least 8 weeks, with no changes in antipsychotic dosing in the preceding 4 weeks. Patients receiving first-generation antipsychotics were excluded. Concomitant psychiatric medications were permissible (antidepressants, mood stabilizers, anticholinergics, other), provided that patients were receiving stable doses of all of these medications in the 4 weeks preceding the trial and throughout the entire duration of the study. Any change in psychiatric medications at any point during the study rendered a patient ineligible to continue participation.
During the screening visit (Visit 1), patients received a physical exam, vital signs, and electrocardiogram (EKG), as well as baseline laboratory measures consisting of serum electrolytes, glucose, creatinine, blood urea nitrogen (chemistry 7 panel), liver function tests, complete blood count (CBC), urinalysis, urine toxicology test, thyroid stimulating hormone (TSH), and prolactin, and serum pregnancy test if female. These tests were also repeated at the completion of the study (Visit 6). In addition, patients received an interim EKG 4 weeks post-randomization, as well as a serum pregnancy test if female (Visit 4). Patients also received a chemistry 7 panel, CBC, and liver function tests at Visits 2, 3, 4, and 5 (i.e., at all study visits). Psychiatric symptoms were assessed at baseline using the Scale for the Assessment of Negative Symptoms (Andreasen, 1983), the Positive and Negative Symptom Scale (PANSS; Kay et al., 1987), the Calgary Depression Rating Scale (CDRS; Addington et al., 1990), the Clinical Global Impressions Improvement (CGI-I) and Severity (CGI-S) scales, the Barnes Akathisia Scale (BAS; Barnes, 1989), the Simpson Angus Scale for Extrapyramidal Symptoms (SAS; Simpson & Angus, 1970), the Quality of Life Scale (QOL; Heinrichs et al., 1984), and the Hillside Side Effects Scale. One research nurse with five years of experience in the conduction of schizophrenia clinical trials completed both psychiatric and cognitive assessments throughout the study, and was trained to one point of divergence on each PANSS item.

[2] = tested on: subjects with mild traumatic brain injury (TBI); assay: Total cholesterol in mild TBI subjects, pregnenolone 8 weeks (100, 300, then 500 mg/day oral) versus placebo; type: in vivo, human; settings: baseline to study completion (8 weeks), t-test of change scores p=0.035, FIG. 3
Text: Ten (10) additional subjects with mild TBI were given a placebo.

[3] = Difference in change from Week 0 to Week 8

CC(=O)[C@H]1CC[C@H]2[C@@H]3CC=C4C[C@@H](O)CC[C@]4(C)[C@H]3CC[C@]12C [PG, pregnenolone]
SANS Affect subscale, change ([1]; Change from Week 0 to Week 8): −4.3 ± 1.7 | SANS Alogia subscale, change ([1]; Change from Week 0 to Week 8): −1.9 ± 0.8 | SANS Anhedonia/asociality subscale, change ([1]; Change from Week 0 to Week 8): −2.4 ± 1.3 | SANS Attention subscale, change ([1]; Change from Week 0 to Week 8): −1.6 ± 0.4 | SANS Avolition/apathy subscale, change ([1]; Change from Week 0 to Week 8): −0.3 ± 0.3 | SANS Total, change ([1]; Change from Week 0 to Week 8): −10.4 ± 10.2 | SANS Total, change ([1]; Change from Week 0 to Week 8, listed as pregnenolone): 10.38±10.18 | SANS Affect subscale, difference PG vs placebo [1, 3]: −4.5 ± 1.9 | SANS Alogia subscale, difference PG vs placebo [1, 3]: −1.5 ± 0.8 | SANS Anhedonia/asociality subscale, difference PG vs placebo [1, 3]: −1.6 ± 1.3 | SANS Attention subscale, difference PG vs placebo [1, 3]: −0.5 ± 0.5 | SANS Avolition/apathy subscale, difference PG vs placebo [1, 3]: 0.1 ± 0.6 | SANS Total, difference PG vs placebo [1, 3]: −8.0 ± 3.7 | SANS Total, difference PG vs placebo ([1]; Difference in change from Week 0 to Week 8, listed as Pregnenolone): approximately 8 | SANS Affect subscale score ([1]; Week 0 (baseline)): 13.4 ± 5.0 | SANS Alogia subscale score ([1]; Week 0 (baseline)): 8.8 ± 3.6 | SANS Anhedonia/asociality subscale score ([1]; Week 0 (baseline)): 12.0 ± 4.5 | SANS Attention subscale score ([1]; Week 0 (baseline)): 5.6 ± 1.1 | SANS Avolition/apathy subscale score ([1]; Week 0 (baseline)): 8.3 ± 2.5 | SANS Total score ([1]; Week 0 (baseline)): 50.8 ± 12.2 | SANS Total score ([1]; Week 0 (baseline), listed as pregnenolone): 47.56±12.09 | SANS Affect subscale score ([1]; Week 4): 14.3 ± 3.2 | SANS Alogia subscale score ([1]; Week 4): 7.8 ± 3.2 | SANS Anhedonia/asociality subscale score ([1]; Week 4): 10.4 ± 4.1 | SANS Attention subscale score ([1]; Week 4): 5.3 ± 1.0 | SANS Avolition/apathy subscale score ([1]; Week 4): 8.1 ± 1.0 | SANS Total score ([1]; Week 4): 45.8 ± 8.8 | SANS Affect subscale score ([1]; Week 8): 11.9 ± 0.4 | SANS Alogia subscale score ([1]; Week 8): 6.9 ± 2.1 | SANS Anhedonia/asociality subscale score ([1]; Week 8): 9.6 ± 3.5 | SANS Attention subscale score ([1]; Week 8): 4.0 ± 0 | SANS Avolition/apathy subscale score ([1]; Week 8): 8.0 ± 0.5 | SANS Total score ([1]; Week 8): 40.4 ± 3.5 | Total cholesterol (percent change) compared to placebo [2]: statistically significant reduction | Total cholesterol (percent change) compared to placebo ([2]; listed as pregnenolone): reduced
